Test results reported in patent publication US11872291B2, “Fibroblast activation protein (FAP)-targeted imaging and therapy” (priority 2016, dated 2024).

Assays:
[1] = test system: MDA-MB-231 subcutaneous tumor; assay: In vivo FAP targeted CAR T-cell therapy; parameters: species or system mice
Procedure: In vivo FAP targeted CAR T-cell therapy: MDA-MB-231 subcutaneous tumor was developed in female NSG mice by injecting 5 million cancer cells. Once the tumor volume reached ˜100 mms the mice were randomized into three different groups and treatment was initiated. Mice in all the groups were administered with 15 million CAR T-cells which has an scFv domain that binds specifically and tightly with fluorescein. 2 h after administration of the CAR T-cells mice in all the groups were given the first dose of the respective test agents. […] During therapy, mice in different groups were administered with the respective test agents intravenously on every other day. As a measure of gross toxicity mice were also weighed at every dosing.

[2] = test system: FaDu, HT29, MDA-MB231 and KB cancer cells; assay: Confocal microscopy, uptake of JFL-L1-FM by cancer cells; format: cell-based; conditions: 100 nM, 1 h incubation at 37° C.
Procedure: Confocal Microscopy. FaDu, HT29, MDA-MB231 and KB cancer cells (30,000) were plated on 4 well confocal plate. The cells were incubated with […] JFL-L1-FM and incubated for 1 h. The unbound fluorescence was removed by washing the cells three times with the medium. The cell bound fluorescence was observed by using Olympus confocal microscopy.
In Vitro Binding Affinity and Confocal Imaging. The cancer cells FaDU, HT29, MDA-MB231 and KB were investigated for the expression of FAP. For this purpose, the cancer cells were seeded on a confocal well plate and incubated with 100 nM of the FAP targeted FM conjugate (JFL-L1-FM) After 1 h incubation at 37° C. the cells were washed to remove any excess of the […] under confocal microscopy to investigate any uptake of the dye, as shown in FIG. 11. […] This implied absence of FAP on these cancer cells.

[3] = test system: FaDu, HT29, MDA-MB231 or KB tumor bearing mice; assay: In vivo fluorescence imaging and biodistribution in tumor xenografts; conditions: i.v., 2 h post injection; harvested organs
Procedure: In Vivo Fluorescence Imaging and Biodistribution. For the development of subcutaneous tumor xenografts, MDA-MB231, OVCAR-3 and HEC-1B 5×10^6 cells in 0.2 ml sterile PBS were injected subcutaneously in the right hind flank of the female nu/nu mice. Tumor imaging was initiated once the tumor volume reached between 200 mm^3 and 300 mm^3. Each tumor-bearing mouse was intravenously injected (via tail vein) with 10 nanomoles of fluorescence dye conjugate either in the presence or absence of a 100-fold excess of the unlabeled conjugate. Animals were euthanized two hours post injection using CO2 and the images were acquired using Caliper IVIS Luminal II. After performing the whole body image, the organs of interest were harvested and imaged to inspect the accumulation of the fluorescence in these organs. The image acquisition parameters were as follows: i) lamp level-high, ii) excitation-745 nm, iii) emission-ICG, iv) binning (M) 4M, (v) f-stop-4, (vi) FOV-12.5, (vii) acquisition time, 5 s.
In Vivo Fluorescence Imaging. To investigate the ability of JFL-L1-S0456 to accumulate in vivo mice were implanted with FaDu (n=5), HT29 (n=5), MDA-MB231(n=5) or KB (n=5) cells. These tumor bearing mice were intravenously injected with the NIR dye conjugate alone or co-injected with excess of the FAP targeting ligand JFL. […]

[4] = 10 nmoles i.v. every other day with 15 million anti-fluorescein CAR T-cells

With `C[C@@H](NC(=O)c1ccnc(CNC(=O)CCC(=O)NC(CSC2CC(=O)N(c3ccc(-c4c5ccc(=O)cc-5oc5cc(O)ccc45)c(C(=O)O)c3)C2=O)C(=O)O)c1)C(=O)N1CC(F)(F)C[C@H]1C#N` (stereo partly drawn) [JFL-L1-FM] the “tumor growth rate after 1 week of treatment” value [1, 4] was “slight separation in the tumor growth rate was observed”, the “tumor volume at the beginning of the study” value [1, 4] was “did not display any reduction in tumor volume” and the “tumor growth rate, competition group” value ([1]; 10 nmoles plus 100-fold excess of JFL, with CAR T-cells) was “did not show any difference in the tumor growth rate”. The “weight loss (gross toxicity)” value ([1]; all arms of the study) was “No weight loss was observed” and the “uptake of dye conjugate observed under confocal microscopy” value [2] was “no uptake of dye conjugate was observed”.
With `C[C@@H](NC(=O)c1ccnc(CNC(=O)CCC(=O)N[C@@H](CSC2CC(=O)N(CCNC(=O)CCc3ccc(OC4=C(/C=C/C5=[N+](CCCCS(=O)(=O)O)c6ccc(S(=O)(=O)[O-])cc6C5(C)C)CCC/C4=C\C=C4\N(CCCCS(=O)(=O)O)c5ccc(S(=O)(=O)O)cc5C4(C)C)cc3)C2=O)C(=O)O)c1)C(=O)N1CC(F)(F)C[C@H]1C#N` (stereo partly drawn) [JFL-L1-S0456] the “uptake of the dye conjugate in the liver and kidney” value [3] was “minimal or no uptake”.
